Assay results: patent EP1198477B1, “PROLACTIN-RELEASING PEPTIDE AND USE IN TREATING PAIN” (Oy Juvantia Pharma Ltd, priority 1999, dated 2001)

System: Rats
Experiment: Blood pressure measurements after i.v. injections
Assay type: in vivo
Details: in the same animals, dose not stated

With `CNC[C@H](O)c1cccc(O)c1` [phenylephrine] the arterial pressure was “clear increase in pressure”.
